This is an account of results in patent publication US20080161365A1, “Methylene Derivatives” (PFIZER INC., priority 2005, published 2008).

Converted amounts (≈) assume the structure as drawn. “And” between values parts separate entries of the source, which are not always exact repeats. Equal values may be shown once.

The target in data set [1] is T1, MMP-12 catalytic domain (Homo sapiens, UniProt P39900).
T1 construct: MMP-9 full-length, MMP-12 catalytic domain, and MMP-14 catalytic domain
Kind of data set: MMP-12 catalytic domain thiopeptolide hydrolysis inhibition. In kind it is biochemical. To be noted: read-out: MMP-12CD IC50. From the text: (§1) In general, the MMP inhibition assays measure the amount by which a test compound reduces the hydrolysis of a thiopeptolide substrate catalyzed by a matrix metalloproteinase enzyme. Such assays are described in detail by Ye et al., in Biochemistry, 1992;31(45):11231-11235, which is incorporated herein by reference.
(§2) Thiopeptolide substrates show virtually no decomposition or hydrolysis at or below neutral pH in the absence of a matrix metalloproteinase enzyme. A typical thiopeptolide substrate commonly utilized for assays is Ac-Pro-Leu-Gly-thioester-Leu-Leu-Gly-OEt. A 100 μL assay mixture will contain 50 mM of N-2-hydroxyethylpiperazine-N′-2-ethanesulfonic acid buffer (“HEPES,” pH 7.0), 10 mM CaCl2, 100 μM thiopeptolide substrate, and 1 mM 5,5′-dithio-bis-(2-nitrobenzoic acid) (DTNB). The thiopeptolide substrate concentration may be varied, for example from 10 to 800 μM to obtain Km and Kcat values. The change in absorbance at 405 nm is monitored on a Thermo Max microplate reader (molecular Devices, Menlo Park, Calif.) at room temperature (22° C.). The calculation of the amount of hydrolysis of the thiopeptolide substrate is based on E412=13600 M^−1 cm^−1 for the DTNB-derived product 3-carboxy-4-nitrothiophenoxide. Assays are carried out with and without matrix metalloproteinase inhibitor compounds, and the amount of hydrolysis is compared for a determination of inhibitory activity of the test compounds.
(§3) Test compounds were evaluated at various concentrations in order to determine their respective IC50 values, the micromolar concentration of compound required to cause a 50% inhibition of catalytic activity of the respective enzyme.
(§4) The test described above for the inhibition of MMP-13 may also be adapted and used to determine the ability of the compounds of formula (I) to inhibit the matrix metalloproteases MMP-1, MMP-2, MMP-3, MMP-7, MMP-9, MMP-12, MMP-14, and MMP-17. […]

Data set [2] has as its target T2, MMP-13 catalytic domain (Homo sapiens, UniProt P45452).
T2 construct: use the catalytic domain of the MMP-13 enzyme, namely matrix metalloproteinase-13 catalytic domain
The data set can be described thus: MMP-13 catalytic domain thiopeptolide hydrolysis inhibition (Biological Method 1). In kind it is biochemical. The settings on record: HEPES pH 7.0, 22° C.; read-out: MMP-13CD IC50.
Text: as §1
Some of the particular methods described below use the catalytic domain of the MMP-13 enzyme, namely matrix metalloproteinase-13 catalytic domain (“MMP-13CD”), rather than the corresponding full-length enzyme, MMP-13. It has been shown previously by Ye Qi-Zhuang, Hupe D., and Johnson L. (Current Medicinal Chemistry, 1996;3:407-418) that inhibitor activity against a catalytic domain of an MMP is predictive of the inhibitor activity against the respective full-length MMP enzyme.
Thiopeptolide substrates show virtually no decomposition or hydrolysis at or below neutral pH in the absence of a matrix metalloproteinase enzyme. A typical thiopeptolide substrate commonly utilized for assays is Ac-Pro-Leu-Gly-thioester-Leu-Leu-Gly-OEt. A 100 μL assay mixture will contain 50 mM of N-2-hydroxyethylpiperazine-N′-2-ethanesulfonic acid buffer (“HEPES,” pH 7.0), 10 mM CaCl2, 100 μM thiopeptolide substrate, and 1 mM 5,5′-dithio-bis-(2-nitrobenzoic acid) (DTNB). The thiopeptolide substrate concentration may be varied, for example from 10 to 800 μM to obtain Km and Kcat values. The change in absorbance at 405 nm is monitored on a Thermo Max microplate reader (molecular Devices, Menlo Park, Calif.) at room temperature (22° C.). The calculation of the amount of hydrolysis of the thiopeptolide substrate is based on E412=13600 M^−1 cm^−1 for the DTNB-derived product 3-carboxy-4-nitrothiophenoxide. Assays are carried out with and without matrix metalloproteinase inhibitor compounds, and the amount of hydrolysis is compared for a determination of inhibitory activity of the test compounds. […]

In data set [3] the target is T3, MMP-9 full-length (Homo sapiens, UniProt P14780).
T3 construct: further screened with full-length MMP-2, full-length MMP-7, full-length MMP-9
Kind of data set: MMP-9 full-length thiopeptolide hydrolysis inhibition. In kind it is biochemical. To be noted: read-out: MMP-9FL IC50.
Text: as §1, §2, §3, §4

In data set [4] the target is T4, MMP-7 full-length (Homo sapiens, UniProt P09237).
T4 construct: further screened with full-length MMP-2, full-length MMP-7, full-length MMP-9
T4 sequence (P09237 95-267): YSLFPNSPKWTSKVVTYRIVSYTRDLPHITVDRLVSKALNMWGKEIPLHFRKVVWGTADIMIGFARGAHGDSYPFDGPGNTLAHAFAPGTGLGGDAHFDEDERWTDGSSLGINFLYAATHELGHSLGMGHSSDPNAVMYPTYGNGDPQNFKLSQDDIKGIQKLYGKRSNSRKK
Kind of data set: MMP-7 full-length thiopeptolide hydrolysis inhibition. In kind it is biochemical. The settings on record: read-out: MMP-7FL IC50.
Text: as §1, §2, §3, §4

The target of data set [5] is T5, MMP-2 full-length (Homo sapiens, UniProt P08253).
T5 construct: further screened with full-length MMP-2, full-length MMP-7, full-length MMP-9
T5 sequence (P08253 110-660): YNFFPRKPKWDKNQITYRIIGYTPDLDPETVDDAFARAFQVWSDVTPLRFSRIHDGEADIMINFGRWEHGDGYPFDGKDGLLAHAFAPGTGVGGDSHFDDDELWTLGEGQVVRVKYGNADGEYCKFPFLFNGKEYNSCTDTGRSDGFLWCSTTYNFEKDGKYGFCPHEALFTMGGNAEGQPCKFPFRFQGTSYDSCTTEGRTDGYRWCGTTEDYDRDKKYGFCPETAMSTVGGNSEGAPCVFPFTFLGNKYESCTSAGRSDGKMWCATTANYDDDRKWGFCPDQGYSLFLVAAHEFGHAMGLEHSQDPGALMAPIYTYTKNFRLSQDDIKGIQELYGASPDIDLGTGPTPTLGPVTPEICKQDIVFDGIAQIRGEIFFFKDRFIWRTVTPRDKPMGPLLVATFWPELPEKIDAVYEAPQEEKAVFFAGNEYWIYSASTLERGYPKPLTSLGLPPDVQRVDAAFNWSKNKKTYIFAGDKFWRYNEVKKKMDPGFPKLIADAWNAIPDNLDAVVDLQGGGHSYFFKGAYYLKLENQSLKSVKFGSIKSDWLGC
The data set can be described thus: MMP-2 full-length thiopeptolide hydrolysis inhibition. In kind it is biochemical. The settings on record: read-out: MMP-2FL IC50.
Text: as §1
Thiopeptolide substrates show virtually no decomposition or hydrolysis at or below neutral pH in the absence of a matrix metalloproteinase enzyme. A typical thiopeptolide substrate commonly utilized for assays is Ac-Pro-Leu-Gly-thioester-Leu-Leu-Gly-OEt. A 100 μL assay mixture will contain 50 mM of N-2-hydroxyethylpiperazine-N′-2-ethanesulfonic acid buffer (“HEPES,” pH 7.0), 10 mM CaCl2, 100 μM thiopeptolide substrate, and 1 mM 5,5′-dithio-bis-(2-nitrobenzoic acid) (DTNB). The thiopeptolide substrate concentration may be varied, for example from 10 to 800 μM to obtain Km and Kcat values. The change in absorbance at 405 nm is monitored on a Thermo Max microplate reader (molecular Devices, Menlo Park, Calif.) at room temperature (22° C.). The calculation of the amount of hydrolysis of the thiopeptolide substrate is based on E412=13600 M^−1 cm^−1 for the DTNB-derived product 3-carboxy-4-nitrothiophenoxide. […]

The target in data set [6] is T6, MMP-1 full-length (Homo sapiens, UniProt P03956).
T6 construct: have been assayed with MMP-1 full-length, MMP-2 full-length
T6 sequence (P03956 100-469): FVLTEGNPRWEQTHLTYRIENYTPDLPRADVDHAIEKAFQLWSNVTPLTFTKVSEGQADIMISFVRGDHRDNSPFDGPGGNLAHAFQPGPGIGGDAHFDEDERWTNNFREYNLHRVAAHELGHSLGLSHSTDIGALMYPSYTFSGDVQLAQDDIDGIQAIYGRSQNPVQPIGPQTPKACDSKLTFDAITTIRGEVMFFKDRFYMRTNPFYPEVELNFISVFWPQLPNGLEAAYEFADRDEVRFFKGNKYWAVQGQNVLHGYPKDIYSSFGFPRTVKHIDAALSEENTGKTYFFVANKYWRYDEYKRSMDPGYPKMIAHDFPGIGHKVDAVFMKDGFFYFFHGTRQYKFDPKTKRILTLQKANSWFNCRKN
Kind of data set: MMP-1 full-length thiopeptolide hydrolysis inhibition. In kind it is biochemical. The settings on record: read-out: MMP-1FL IC50.
Text: as §1, §2, §3, §4

Data set [7] has as its target T7, MMP-3 catalytic domain (Homo sapiens, UniProt P08254).
T7 construct: MMP-2 full-length, MMP-3 catalytic domain, MMP-7 full-length
Kind of data set: MMP-3 catalytic domain thiopeptolide hydrolysis inhibition. In kind it is biochemical. To be noted: MES buffer pH 6.0; read-out: MMP-3CD IC50.
Text: as §1, §2, §3
The assay buffer used with MMP-3CD was 50 mM N-morpholinoethane sulfonate (“MES”) at pH 6.0 rather than the HEPES buffer at pH 7.0 described above.
as §4

Data set [8] deals with T8, MMP-14 catalytic domain (Homo sapiens, UniProt P50281).
T8 construct: MMP-9 full-length, MMP-12 catalytic domain, and MMP-14 catalytic domain
The data set can be described thus: MMP-14 catalytic domain thiopeptolide hydrolysis inhibition. In kind it is biochemical. To be noted: read-out: MMP-14CD IC50.
Text: as §1, §2, §3, §4

Data set [9] deals with T9, MMP-8 catalytic domain (Homo sapiens, UniProt P22894).
T9 construct: MMP-7 full-length, MMP-8 catalytic domain, MMP-9 full-length
The data set can be described thus: MMP-8 catalytic domain thiopeptolide hydrolysis inhibition. To be noted: read-out: MMP-8CD IC50. In kind it is biochemical.
Text: as §1, §2, §3
Certain compounds of formula (I) have been assayed with MMP-1 full-length, MMP-2 full-length, MMP-3 catalytic domain, MMP-7 full-length, MMP-8 catalytic domain, MMP-9 full-length, MMP-12 catalytic domain, and MMP-14 catalytic domain.

Data set [10] can be described thus: PDS solubility (Chemical Method 1, UV-visible absorbance of saturated solution). In kind it is physicochemical. To be noted: thermodynamic from solid; pH 6.5 aqueous phosphate buffer, 5% glyme. On the procedure: Solubility of a test compound of the present invention refers to solubility of the compound in a solvent mixture containing ethylene glycol dimethylether (“glyme”) and pH 6.5 aqueous phosphate buffer. The solubility was determined by measuring ultraviolet-visible absorbance of a saturated solution of the compound and comparing the absorbance value to absorbance values obtained for four standard solutions of the compound having known concentrations plotted on a 4-point ultraviolet-visible standard curve. […]
The prepared 96-well plate was transferred to a 96-well ultraviolet-visible plate reader, and the wells were scanned over wavelengths of from 220 nm to 350 nm with a step size of 2 nm. The ultraviolet-visible data (i.e., data generated at the same wavelength) were electronically exported to a spreadsheet and absorbance data for the filtrate of the saturated solution measured at one wavelength (i.e., the data that had the best linear fit as calculated by the highest regression coefficient, typically 0.98 or higher) and the corresponding standards absorbance data measured at the same wavelength were plotted as a standard absorbance-concentration curve based on the Lambert-Beer law. […] The calculated solubility was expressed as in milligrams of test compound in milliliters of solvent. […]

T3 sequence (P14780 94-707, species assumed): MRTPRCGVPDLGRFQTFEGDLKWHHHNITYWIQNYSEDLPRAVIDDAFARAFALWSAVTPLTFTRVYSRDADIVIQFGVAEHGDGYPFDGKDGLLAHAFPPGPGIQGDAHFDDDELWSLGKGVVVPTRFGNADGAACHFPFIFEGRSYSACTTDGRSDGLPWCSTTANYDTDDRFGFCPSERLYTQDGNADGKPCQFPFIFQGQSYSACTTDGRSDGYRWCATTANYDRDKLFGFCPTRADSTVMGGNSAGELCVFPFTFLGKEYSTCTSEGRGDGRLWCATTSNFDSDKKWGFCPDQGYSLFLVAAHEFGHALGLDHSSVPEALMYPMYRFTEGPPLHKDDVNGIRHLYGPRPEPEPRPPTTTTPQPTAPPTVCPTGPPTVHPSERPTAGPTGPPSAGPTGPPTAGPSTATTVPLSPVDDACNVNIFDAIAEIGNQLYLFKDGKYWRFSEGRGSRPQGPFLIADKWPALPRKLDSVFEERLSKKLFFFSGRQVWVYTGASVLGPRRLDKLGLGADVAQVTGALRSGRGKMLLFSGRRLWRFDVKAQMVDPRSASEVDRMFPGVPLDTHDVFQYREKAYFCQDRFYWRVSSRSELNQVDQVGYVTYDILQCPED
T7 sequence (P08254 100-272 limits assumed, species assumed): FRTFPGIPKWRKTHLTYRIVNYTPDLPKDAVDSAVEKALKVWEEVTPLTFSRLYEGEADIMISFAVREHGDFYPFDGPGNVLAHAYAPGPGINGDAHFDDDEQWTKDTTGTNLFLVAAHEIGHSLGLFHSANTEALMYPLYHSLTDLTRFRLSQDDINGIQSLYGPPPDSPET
T9 sequence (P22894 100-262 limits assumed, species assumed): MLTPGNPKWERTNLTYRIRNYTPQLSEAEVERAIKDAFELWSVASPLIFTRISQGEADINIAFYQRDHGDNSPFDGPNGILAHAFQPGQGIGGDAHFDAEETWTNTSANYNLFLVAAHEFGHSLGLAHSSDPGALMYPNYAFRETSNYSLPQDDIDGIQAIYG
T1 sequence (P39900 106-263 limits assumed, species assumed): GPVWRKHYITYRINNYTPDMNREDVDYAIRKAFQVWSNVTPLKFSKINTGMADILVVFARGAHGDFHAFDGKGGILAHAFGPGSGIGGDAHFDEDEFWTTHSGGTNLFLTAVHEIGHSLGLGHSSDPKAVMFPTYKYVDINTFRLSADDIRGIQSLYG

As to `Cc1cc(C(O)CCc2ccc(C(=O)O)cc2)cc(C(=O)NCc2cccc(C(F)(F)F)c2)n1` (stereo not shown) [Example 3, 4-{3-hydroxy-3-[2-methyl-6-(3-trifluoromethyl-benzylcarbamoyl)-pyridin-4-yl]-propyl}-benzoic acid], the half-maximal inhibitory concentration (IC50) (commonly the point on the concentration scale where inhibition reaches its midpoint) was greater than 100 µM in data set [1]; 0.062 µM in data set [2]; less than 10 µM in data set [3]; less than 10 µM in [4]; 90 µM in [5]; greater than 100 µM in [6]. Also, the IC50 in data set [7] was 6 µM; in data set [8] it was greater than 100 µM; in [9], greater than 100 µM.

Turning to `Cc1cc(C(F)CCc2ccc(C(=O)O)cc2)cc(C(=O)NCc2cccc(C(F)(F)F)c2)n1` (stereo not shown) [Example 1, 4-{3-fluoro-3-[2-methyl-6-(3-trifluoromethyl-benzylcarbamoyl)-pyridin-4-yl]-propyl}-benzoic acid], the half-maximal inhibitory concentration (IC50) is greater than 100 µM in [1]; 0.028 µM and 0.039 µM in [2]; 51 µM in [3]; 51 µM in data set [4]; greater than 100 µM in data set [6]; 11 µM in [7]. Further, the IC50 is 56 µM in data set [8] and greater than 30 µM in data set [9]. Further, in [10], the solubility (usually how much of the substance goes into solution per volume) was determined as 27 µg/mL (≈ 56.9 µM).

Take `Cc1cc(C(F)(F)CCc2ccc(C(=O)O)cc2)cc(C(=O)NCc2cccc(C(F)(F)F)c2)n1.O=C(O)C(F)(F)F` [Example 2, 4-{3,3-difluoro-3-[2-methyl-6-(3-trifluoromethyl-benzylcarbamoyl)-pyridin-4-yl]-propyl}-benzoic acid monotrifluoroacetic acid salt]: the IC50 in data set [1] is greater than 100 µM; in [2], 0.087 µM and 0.11 µM; in data set [3] it was 64 µM; in data set [4], 1.7 µM; in data set [5], greater than 100 µM; in [6], greater than 100 µM. The IC50 in data set [7] is 13 µM; in data set [8], greater than 100 µM; in data set [9], greater than 30 µM. The molecule also registered a solubility in data set [10] of 4 µg/mL.
